We go through five compounds from ChEMBL document CHEMBL1201862, “PubChem BioAssay data set” (2004).

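Exposure lasted 48 hours, with cells grown in 96-well plates and compounds tested at five concentrations. At the GI50, growth is halved.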 Calls of active or inactive are those of the source. Rule as the data show it: active = GI50 up to about 1.1 µM and inactive = higher. A value given as a limit tells only on which side of the number the result lay.

Some test systems named below: ACHN; HCC 2998; HCT-15; HOP-62; IGROV-1; K562; MCF7; OVCAR-3; PC-3; RXF 393; SF-268; SF-295; SK-MEL-2; SNB-19; TK-10; U-251.
What all share (assay): DTP human tumour cell line panel, 48 h

For the compound `CC(C)(C)c1ccc(O)c(CN(Cc2cc(C(C)(C)C)ccc2O)C2CCCCC2)c1`, the GI50 (commonly the concentration at which growth is held to half of that of the control) is 20 µM (inactive) in the assay with ACHN; 2.01 µM (inactive) in the assay with HCC 2998; 20.7 µM in the assay on HCT-15; 18.5 µM (inactive) in the assay with HOP-62; 17.6 µM (inactive) in the assay with IGROV-1; 6.46 µM (inactive) in the assay with K562. Also, the GI50 in the assay on MCF7 is 17.4 µM (inactive); in the assay with OVCAR-3, 18.2 µM (inactive); with PC-3 it was 17.5 µM (inactive); in the assay on RXF 393, 17.4 µM (inactive); in the assay on SF-268, 15.7 µM (inactive); with SF-295, 17.7 µM (inactive). For the same compound, the GI50 in the assay on SK-MEL-2 is 18.5 µM (inactive); in the assay with SNB-19, 18 µM (inactive); in the assay on TK-10 it was 17.7 µM (inactive); in the assay with U-251, 16.5 µM (inactive).
As for `O=C(CCC(=O)OCC1OC(O)(CC2OC(CO)C(O)C(O)C2O)C(O)C1O)OCc1ccccc1` (stereo not drawn), the GI50 in the assay on ACHN is > 100 µM (inactive); in the assay on HCC 2998 it was > 100 µM (inactive); in the assay on HCT-15 it was above 100 µM; with HOP-62, > 100 µM (inactive); with IGROV-1 it was > 100 µM (inactive); in the assay on K562 it was > 100 µM (inactive). The GI50 in the assay on MCF7, with OVCAR-3, in the assay on PC-3, in the assay with RXF 393, with SF-268 and with SF-295 was > 100 µM (inactive) each time. Besides, the GI50 with SK-MEL-2, in the assay with SNB-19, in the assay on TK-10 and in the assay on U-251 was > 100 µM (inactive) in each case.
As to `OCC1=C[C@@](COCc2ccccc2)(OCc2ccccc2)[C@@H](OCc2ccccc2)[C@@H]1OCc1ccccc1`, the GI50 is 22.9 µM (inactive) in the assay on ACHN; 13.7 µM (inactive) in the assay with HCC 2998; 17.1 µM with HCT-15; 24.2 µM (inactive) in the assay with HOP-62; 7.01 µM (inactive) in the assay on IGROV-1; 10.6 µM (inactive) with K562. Moreover, the GI50 with MCF7 is 3.76 µM (inactive); in the assay on OVCAR-3, 11.7 µM (inactive); with PC-3, 15.1 µM (inactive); in the assay on RXF 393, 3.64 µM (inactive); with SF-268 it was 11.6 µM (inactive); with SF-295 it was 13.2 µM (inactive). Also, the GI50 with SK-MEL-2 is 12.7 µM (inactive); in the assay with SNB-19, 42.8 µM (inactive); with TK-10, 21.3 µM (inactive); in the assay on U-251 it was 6.59 µM (inactive).
Turning to `CC(C)=CC(O)C(C(O)CCC1(C)OCCO1)S(=O)(=O)c1ccccc1` (stereo not drawn), the GI50 in the assay on ACHN was > 100 µM (inactive); in the assay on HCC 2998, > 100 µM (inactive); in the assay with HCT-15 it was above 100 µM; in the assay on HOP-62, > 100 µM (inactive); in the assay with IGROV-1 it was > 100 µM (inactive); in the assay with MCF7 it was > 100 µM (inactive). In addition, the GI50 with OVCAR-3, with PC-3, with RXF 393, with SF-268, in the assay with SF-295 and in the assay with SK-MEL-2 was > 100 µM (inactive) in each case. Also, the GI50 in the assay on SNB-19, in the assay with TK-10 and with U-251 was > 100 µM (inactive) in each case.
With `O=C1OC(=O)c2c1cc1cc3c(cc1c2-c1ccc2c(c1)OCO2)OCO3`, the GI50 in the assay on ACHN was > 100 µM (inactive); with HCC 2998 it was > 100 µM (inactive); in the assay with HCT-15 it was above 100 µM; in the assay with IGROV-1, > 100 µM (inactive); in the assay on K562, > 100 µM (inactive); in the assay with MCF7, > 100 µM (inactive). The GI50 with OVCAR-3, in the assay with PC-3, in the assay on RXF 393, with SF-268, in the assay on SF-295 and in the assay with SK-MEL-2 was > 100 µM (inactive) throughout. In addition, the GI50 in the assay on SNB-19, in the assay on TK-10 and in the assay on U-251 was > 100 µM (inactive) in each case.
